{"source": "patent US11513122B2", "about": "“Predicting response to PD-1 axis inhibitors” (Hoffmann-La Roche Inc., priority 2016, dated 2022)", "key": {"[1]": {"tested_on": "MC38 cells (colorectal cancer cell lines)", "experiment": "MC38 tumor model in CD11c-DTR mice with or without DC depletion by DT", "type": "in vivo", "settings": "MC38 s.c.; DT 100 ng at day 6; anti-PD-L1 Ab 10 mg/kg from day 7, weekly; FIG. 6B", "method": "To further study the contribution of DCs by PD-L1 blockade in mediating anti-tumor immunity, we obtained the CD11c-DTR mice from the Jackson laboratory (B6.FVB-Tg(Itgax-DTR/EGFP)57Lan/J, Cat. No. 004509). […]. When tumor is palpable at day 6, mice were treated with 100 ng of DT (Sigma-Aldrich) or left untreated. At day 7, a anti-PD-L1 Ab (10 mg/kg, murine IgG1, clone 6E11, Genentech) was given to mice, followed by weekly injection (FIG. 6A). […] Our data support the concept that DCs are needed for PD-L1 Ab to achieve its maximum anti-tumor efficacy."}, "[2]": {"tested_on": "human DCs", "experiment": "Maturation of monocyte-derived DCs by LPS, PD-1/PD-L1 staining by flow cytometry", "type": "cell-based", "settings": "LPS 10 ng/mL, FIGS. 2A-2B", "method": "To address the potential regulation of PD-1 and its ligands on human DCs, monocyte-derived DCs were generated using the classical method. Briefly, Peripheral Blood Mononuclear Cells (PBMCs) were isolated from buffy-coats (Blutspende, Schlieren) from healthy human donors, using Ficoll-Paque™ Plus (GE Healthcare, #17-1440-03) density gradient. Rings of PBMCs were collected and washed with PBS two times by centrifugation (5′ at 763 g; 5′ at 600 g). A lysis was conducted using 10 mL of BD Pharm Lyse™ (BD Biosciences, #555899) diluted at 1× with sterile water and incubated 1,5 minute at room temperature. Two washes with Phosphate-buffered saline 1× (PBS; Gibco® by live technologies™, #20012-019) were conducted by centrifugation (8′ at 135 g). Cells number and quality were evaluated using Cell counter (Beckman Coulter®). Separate unrelated donors were used for each independent experiment. Monocytes were isolated from fresh PBMCs by negative selection using Human monocyte enrichment kit (StemCell, #19059) in MACs buffer (1450 mL Automacs™ Rinsing solution, Miltenyi #130-091-222; and 75 mL MACS BSA stock Solution, Miltenyi #130-091-376) according to the manufacturer's instructions. […] The cells were then stained with anti-PD-1-PE-Cy7 and anti-PD-L1-APC Abs (BioLegend®; #329917, #329707), and measured by flow cytometry (BD). […]"}, "[3]": {"tested_on": "patients with non-small cell lung cancer (NSCLC)", "experiment": "Phase II clinical trial POPLAR (NCT01903993), overall survival by DC gene expression", "type": "in vivo, human", "description": "Further to Example 3, we analyzed 193 patients with non-small cell lung cancer (NSCLC) previously treated, then received atezolizumab or docetaxel in a Phase II clinical trial POPLAR. This study is registered with ClinicalTrials.gov, number NCT01903993. POPLAR is a multicentre, randomised, open-label phase II trial, done at 61 academic medical centers and community oncology practices across 13 countries in Europe and North America. The study was done in full accordance with the guidelines for Good Clinical Practice and the Declaration of Helsinki. Protocol (and modification) approval was obtained from an independent ethics committee for each site (Fehrenbacher L, et. Al., Lancet 2016). Among those patients with squamous or non-squamous NSCLC, 96 received Docetaxel, and 92 received atezolizumab, and the rest of 5 left untreated (Table 1).\nTumor specimens at baseline were archived and taken for gene expression profiling performed by RNA Sequencing (RNA-Seq). Based on literature (Merad M. et al, Ann. Rev. Immunol. 2013), we selected a list of genes consisting of XCR1, IRF8, BATF3, and FLT3, which are associated with human dendritic cell phenotypes and development with cross-presenting specialization. Normalized read counts of each selected gene across the whole cohort were divided at medium expression level for the higher expression ones (+) and lower/no expression ones (−). Using in-house R scripts the two defined subgroups were plotted against the Kaplan-Meier survival curves. In addition, Cox-regression analysis was used to calculate the hazard ratio (HR) between the two patient groups divided based on positive and negative gene expression.\nWe also investigated the impact of multiple genes involved in human DC development and function (XCR1, BATF3, FLT3, and IRF8) by defining a cumulative DC gene score (DC score) reflecting the cumulative expression of these marker genes. Each gene's expression is first standardized by a z-score:\nwhere μ and σ are estimated in the entire cohort or in the selected subgroups. After the standardization step, these standardized z-score values are averaged across genes within each patient. The cohort was corrected for the smoking status, ECOG and sex of patient. Then the score was plotted against the Kaplan-Meier survival curves."}, "[4]": {"tested_on": "patients with renal cell carcinoma", "experiment": "Phase I clinical trial (NCT01375842), response and survival by DC gene expression", "type": "in vivo, human", "description": "We hypothesized that patients with DC abundance may respond to PD-L1 blockade leading to beneficial effect in patients who received the treatment. We analyzed 56 patients with renal cell carcinoma who received Atezolizumab in a Phase I clinical trial (NCT01375842) (www.clinicaltrials.gov). This study was sponsored by Genentech Inc., a member of the Roche Group, which provided the study drug. The protocol and its amendments were approved by the relevant institutional review boards or ethics committees, and all participants provided written informed consent. This study was conducted in accordance with the Declaration of Helsinki and International Conference on Harmonization Guidelines for Good Clinical Practice. In total, 56 patients were analyzed. Based on the “Best Confirmed Overall Response by the Investigator” we observed 6 responders (CR=1; PR=5) and 47 non-responder (PD=21; SD=26) as well as 3 patients without known information (FIG. 7).\nTumor specimens at baseline were archived and taken for gene expression profiling performed by RNA Sequencing (RNA-Seq). Based on literature (Merad, ann rev immunol 2013), we selected a list of genes consisting of XCR1, IRF8, BATF3 and FLT3, which are associated with human dendritic cell development with cross-presenting specialization. The log 2 RPKM expression values of each selected gene across the whole cohort were divided at medium expression level for the higher expression ones (+) and lower/no expression ones (−). Using in-house R scripts the two defined subgroups were plotted against the Kaplan-Meier survival curves. […] The medium survival between patients with higher expression versus lower/no expression were separated for at least 15.6 months or longer (FIG. 9).\nAs several genes linked to human dendritic cell development were associated with the survival advantages, we investigated the impact of multiple genes involved in human DC development and function by defining a cumulative DC gene score (DC score) reflecting the cumulative expression of these marker genes. Each gene's expression is first standardized by a z-score: z=(x−μ)/σ,\nwhere μ and σ are estimated in the entire cohort or in the selected subgroups. After the standardization step, these standardized z-score values are averaged across genes within each patient. The RCC cohort was corrected for the sex of patient as well as the Stage at Initial Diagnosis."}, "[5]": {"settings": "NSCLC, XCR1 divided at medium expression level"}}, "data": [{"compound": "diphtheria toxin [DT]", "values": [{"measurement": "tumor growth", "setting": "[1]", "result": "did not impact the tumor growth"}]}, {"compound": "lipopolysaccharide [LPS]", "values": [{"measurement": "PD-1 expression on DCs upon maturation", "setting": "[2]", "result": "downregulated"}, {"measurement": "PD-L1 expression on DCs upon maturation", "setting": "[2]", "result": "upregulated"}]}, {"compound": "CC(=O)O[C@@]12CO[C@@H]1C[C@H](O)[C@@]1(C)C(=O)[C@H](O)C3=C(C)[C@@H](OC(=O)[C@H](O)[C@@H](NC(=O)OC(C)(C)C)c4ccccc4)C[C@@](O)([C@@H](OC(=O)c4ccccc4)[C@H]21)C3(C)C", "note": "[docetaxel]", "values": [{"measurement": "correlation of XCR1 expression to survival", "setting": "[3]; NSCLC", "result": "no correlation"}, {"measurement": "correlation of DC genes expression to survival", "setting": "[3]; PD-L1+ patients", "result": "no correlation"}]}, {"compound": "atezolizumab", "values": [{"measurement": "CR", "setting": "[4]; 56 patients analyzed", "result": 1}, {"measurement": "PD", "setting": "[4]; 56 patients analyzed", "result": 21}, {"measurement": "PR", "setting": "[4]; 56 patients analyzed", "result": 5}, {"measurement": "non-responder", "setting": "[4]; 56 patients analyzed", "result": 47}, {"measurement": "responders (Best Confirmed Overall Response by the Investigator)", "setting": "[4]; 56 patients analyzed, FIG. 7", "result": 6}, {"measurement": "HR, higher versus lower DC score", "setting": "[4]; RCC, p=0.03, FIG. 10", "result": 0.38}, {"measurement": "medium survival, patients with higher DC score", "setting": "[4]; cumulative DC gene score (XCR1, IRF8, BATF3, FLT3), FIG. 10", "result": "without reaching medium survival"}, {"measurement": "separation of medium survival between patients with higher expression versus lower/no expression", "setting": "[4]; single genes XCR1, IRF8, BATF3, FLT3, FIG. 9", "result": "at least 15.6 months"}, {"measurement": "separation of medium OS, higher versus lower/no XCR1 expression", "setting": "[3]; NSCLC", "result": "~7", "unit": "months"}, {"measurement": "medium overall survival (mOS), patients with higher XCR1 expression", "setting": "[3]; [5]", "result": 15.5, "unit": "month"}, {"measurement": "medium overall survival (mOS), patients with lower/no XCR1 expression", "setting": "[3]; [5]", "result": 8.6, "unit": "month"}, {"measurement": "medium OS, patients with higher DC signature score", "setting": "[3]; NSCLC, all patients", "result": 16.4, "unit": "months"}, {"measurement": "medium OS, patients with lower/no DC signature expression", "setting": "[3]; NSCLC, all patients", "result": 8.5, "unit": "months"}, {"measurement": "separation of medium OS, higher versus lower/no DC signature expression", "setting": "[3]; NSCLC, all patients", "result": 7.9, "unit": "months"}, {"measurement": "HR, higher versus lower DC signature score", "setting": "[3]; NSCLC, all patients, p=0.04, FIG. 11", "result": 0.54}, {"measurement": "hazard ratio (HR) by Cox-regression analysis, higher versus lower/no XCR1 expression", "setting": "[3]; NSCLC, p=0.077", "result": 0.6}, {"measurement": "median OS, patients with lower/no expression", "setting": "[3]; PD-L1+ patients", "result": 8.4, "unit": "months"}, {"measurement": "medium OS, patients with higher DC gene score", "setting": "[3]; PD-L1+ patients", "result": "not reached"}, {"measurement": "HR, higher versus lower DC signature score", "setting": "[3]; PD-L1+ patients (TC3, TC2, IC3, IC2), p=0.03, FIG. 12", "result": 0.25}]}]}
